Like-named read-outs stand apart in the source and are kept apart here.
How the values were obtained:
human CYP2C19 = human CYP2C19 (Homo sapiens, UniProt P33261); experiment: biochemical; settings: for AC50: CYP2C19 AC50 (half-maximal activity concentration)
human CYP1A2 [1] = target: T1, human CYP1A2 (Homo sapiens, UniProt P05177); experiment: biochemical; settings: for AC50: CYP1A2 AC50 (half-maximal activity concentration)
T1 sequence (P05177 1-516): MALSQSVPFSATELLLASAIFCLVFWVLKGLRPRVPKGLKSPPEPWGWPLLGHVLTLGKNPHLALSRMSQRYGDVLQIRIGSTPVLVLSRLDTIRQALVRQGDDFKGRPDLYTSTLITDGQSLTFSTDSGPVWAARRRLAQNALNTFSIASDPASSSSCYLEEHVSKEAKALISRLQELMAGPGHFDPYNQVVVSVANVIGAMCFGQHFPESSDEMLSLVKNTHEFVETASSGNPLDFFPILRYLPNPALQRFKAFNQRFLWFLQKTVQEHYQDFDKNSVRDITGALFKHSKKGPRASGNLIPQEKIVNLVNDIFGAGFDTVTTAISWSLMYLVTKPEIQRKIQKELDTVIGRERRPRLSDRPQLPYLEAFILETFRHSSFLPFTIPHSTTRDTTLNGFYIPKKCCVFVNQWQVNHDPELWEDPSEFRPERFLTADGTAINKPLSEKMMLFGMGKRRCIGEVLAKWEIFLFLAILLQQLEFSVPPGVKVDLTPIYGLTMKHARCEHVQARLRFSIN

human CYP2D6 = human CYP2D6 (Homo sapiens, UniProt P10635); experiment: biochemical; settings: for AC50: CYP2D6 AC50 (half-maximal activity concentration)
CYP3A4 = CYP3A4 (Homo sapiens, UniProt P08684); experiment: biochemical; settings: for AC50: CYP3A4 AC50 (half-maximal activity concentration)
human CYP2C9 [2] = target: T2, human CYP2C9 (Homo sapiens, UniProt P11712); experiment: biochemical
[3] = target: Photinus pyralis (firefly) luciferase (Photinus pyralis, UniProt P08659); experiment: biochemical; format: biochemical
human CYP1A2 [4] = target: T1, human CYP1A2
human CYP2C9 [5] = target: T2, human CYP2C9
[6] = CYP2C19 IC50 (half-maximal inhibitory concentration)
[7] = CYP1A2 IC50 (half-maximal inhibitory concentration)
[8] = CYP2D6 IC50 (half-maximal inhibitory concentration)
[9] = CYP3A4 IC50 (half-maximal inhibitory concentration)
[10] = CYP2C9 IC50 (half-maximal inhibitory concentration)

Chain of Photinus pyralis (firefly) luciferase (P08659 whole entry): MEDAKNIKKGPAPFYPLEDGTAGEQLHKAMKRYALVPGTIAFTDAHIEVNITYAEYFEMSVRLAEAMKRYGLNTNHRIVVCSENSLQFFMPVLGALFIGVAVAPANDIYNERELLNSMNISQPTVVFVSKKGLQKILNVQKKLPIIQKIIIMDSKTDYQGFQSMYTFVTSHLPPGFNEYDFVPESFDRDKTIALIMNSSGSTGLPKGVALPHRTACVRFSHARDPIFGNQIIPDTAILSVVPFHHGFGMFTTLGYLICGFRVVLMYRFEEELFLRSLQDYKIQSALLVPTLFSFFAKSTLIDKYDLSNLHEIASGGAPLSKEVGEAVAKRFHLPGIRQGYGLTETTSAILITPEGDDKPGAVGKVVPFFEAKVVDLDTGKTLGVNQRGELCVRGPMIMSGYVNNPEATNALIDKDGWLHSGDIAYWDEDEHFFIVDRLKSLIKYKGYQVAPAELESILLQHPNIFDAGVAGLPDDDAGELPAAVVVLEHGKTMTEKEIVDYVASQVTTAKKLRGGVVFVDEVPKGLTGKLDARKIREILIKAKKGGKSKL
Chain of CYP3A4 (P08684 whole entry): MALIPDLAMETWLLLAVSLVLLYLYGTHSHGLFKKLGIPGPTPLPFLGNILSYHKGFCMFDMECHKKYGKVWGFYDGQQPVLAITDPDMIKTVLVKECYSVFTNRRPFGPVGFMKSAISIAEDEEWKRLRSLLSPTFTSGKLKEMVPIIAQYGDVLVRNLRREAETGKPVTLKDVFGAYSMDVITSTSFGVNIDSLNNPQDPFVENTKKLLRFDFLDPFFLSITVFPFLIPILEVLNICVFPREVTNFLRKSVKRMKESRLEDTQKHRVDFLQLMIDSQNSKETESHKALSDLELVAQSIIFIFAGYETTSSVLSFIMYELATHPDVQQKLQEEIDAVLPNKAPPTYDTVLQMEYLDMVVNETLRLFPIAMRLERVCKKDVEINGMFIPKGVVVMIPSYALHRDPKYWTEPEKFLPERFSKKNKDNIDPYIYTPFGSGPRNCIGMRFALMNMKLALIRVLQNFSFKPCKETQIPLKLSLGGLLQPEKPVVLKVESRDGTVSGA
Chain of human CYP2C19 (P33261 whole entry): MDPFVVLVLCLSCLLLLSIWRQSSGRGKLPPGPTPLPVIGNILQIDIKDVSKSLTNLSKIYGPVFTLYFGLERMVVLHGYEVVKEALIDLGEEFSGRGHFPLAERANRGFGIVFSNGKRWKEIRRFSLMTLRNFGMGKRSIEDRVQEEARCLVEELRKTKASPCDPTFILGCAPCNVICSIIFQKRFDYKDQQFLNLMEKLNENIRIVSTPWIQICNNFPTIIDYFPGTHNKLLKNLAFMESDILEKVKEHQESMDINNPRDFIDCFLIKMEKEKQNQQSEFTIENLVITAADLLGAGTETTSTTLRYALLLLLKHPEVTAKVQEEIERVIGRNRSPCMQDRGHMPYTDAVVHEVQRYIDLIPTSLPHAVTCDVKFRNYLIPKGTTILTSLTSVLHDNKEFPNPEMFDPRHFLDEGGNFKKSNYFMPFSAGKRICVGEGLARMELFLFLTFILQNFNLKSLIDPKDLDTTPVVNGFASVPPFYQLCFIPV
T2 sequence (P11712 whole entry): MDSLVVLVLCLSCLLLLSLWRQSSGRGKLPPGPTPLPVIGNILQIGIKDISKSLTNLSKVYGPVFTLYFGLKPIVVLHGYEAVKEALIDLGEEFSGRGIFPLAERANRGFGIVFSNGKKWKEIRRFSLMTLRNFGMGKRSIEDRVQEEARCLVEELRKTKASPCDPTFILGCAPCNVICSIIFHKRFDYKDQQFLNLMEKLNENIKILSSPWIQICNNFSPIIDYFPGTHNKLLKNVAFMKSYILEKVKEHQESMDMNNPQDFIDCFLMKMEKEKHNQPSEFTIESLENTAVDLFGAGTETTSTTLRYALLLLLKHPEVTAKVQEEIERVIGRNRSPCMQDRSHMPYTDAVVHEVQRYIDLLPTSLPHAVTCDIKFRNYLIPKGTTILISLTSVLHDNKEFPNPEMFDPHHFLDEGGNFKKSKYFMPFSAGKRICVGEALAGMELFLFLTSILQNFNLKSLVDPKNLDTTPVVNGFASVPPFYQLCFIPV
Chain of human CYP2D6 (P10635 whole entry): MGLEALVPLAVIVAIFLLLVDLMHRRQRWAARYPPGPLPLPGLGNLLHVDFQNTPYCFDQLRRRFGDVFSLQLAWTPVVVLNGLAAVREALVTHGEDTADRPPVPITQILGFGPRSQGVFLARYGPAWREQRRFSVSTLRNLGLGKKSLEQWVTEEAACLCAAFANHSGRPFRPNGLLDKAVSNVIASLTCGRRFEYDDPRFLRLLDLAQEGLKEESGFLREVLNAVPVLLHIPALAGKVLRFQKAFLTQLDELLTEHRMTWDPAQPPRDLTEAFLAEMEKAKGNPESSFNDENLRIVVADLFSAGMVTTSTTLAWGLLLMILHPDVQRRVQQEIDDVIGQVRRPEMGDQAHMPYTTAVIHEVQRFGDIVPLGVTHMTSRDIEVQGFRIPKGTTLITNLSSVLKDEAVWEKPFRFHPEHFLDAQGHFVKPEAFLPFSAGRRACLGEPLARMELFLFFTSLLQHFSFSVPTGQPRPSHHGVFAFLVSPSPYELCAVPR

## c1ccc2sc(SN(C3CCCCC3)C3CCCCC3)nc2c1
Human CYP2C19; CYP2C19 IC50
  IC50: 15.6 µM
Human CYP1A2 [1]; CYP1A2 IC50
  IC50: 32.9 µM
Human CYP2D6; CYP2D6 IC50
  IC50: 0.56 µM
CYP3A4; CYP3A4 IC50
  IC50: 5.16 µM
Human CYP2C9 [2]; CYP2C9 IC50
  IC50: 8.95 µM
[3]
  Luciferase IC50: Inactive

## Fc1ccc([C@]2(Cn3cncn3)O[C@H]2c2ccccc2Cl)cc1 (racemic) [Epoxiconazole]
Human CYP2C19; [6]
  IC50: 0.34 µM
Human CYP1A2 [1]; [7]
  IC50: 3.92 µM
Human CYP2D6; [8]
  IC50: 37 µM
CYP3A4; [9]
  IC50: 0.91 µM
Human CYP2C9 [2]; [10]
  IC50: 5.66 µM
[3]
  Luciferase IC50 (half-maximal inhibitory concentration): Inactive

## CC(C)(C)[C@@H](O)[C@@H](Cc1ccc(Cl)cc1)n1cncn1 (racemic) [Paclobutrazol]
Human CYP2C19; [6]
  IC50: 0.33 µM
Human CYP1A2 [1]; [7]
  IC50: 74.8 µM
Human CYP2D6; [8]
  IC50: 36.8 µM
CYP3A4; [9]
  IC50: 0.14 µM
Human CYP2C9 [2]; [10]
  IC50: 12.1 µM
[3]
  Luciferase IC50 (half-maximal inhibitory concentration): Inactive

## Cc1ccccc1NC(=N)Nc1ccccc1C [1,3-Bis(2-methylphenyl)guanidine]
Human CYP2C19; CYP2C19 IC50
  IC50: 1.11 µM
Human CYP2D6; CYP2D6 IC50
  IC50: 0.01 µM
CYP3A4; CYP3A4 IC50
  IC50: 41 µM
Human CYP1A2 [4]
  CYP1A2 IC50: Inactive
[3]
  Luciferase IC50: Inactive

## Nc1ccc(N)c2c1C(=O)c1ccccc1C2=O [1,4-Diaminoanthraquinone]
Human CYP2C19; [6]
  IC50: 24.7 µM
Human CYP1A2 [1]; [7]
  IC50: 0.35 µM
Human CYP2D6; [8]
  IC50: 33 µM
CYP3A4; [9]
  IC50: 5.17 µM
[3]
  IC50: 15.2 µM

## Cc1ccc2ccc3cccc4ccc1c2c34 [1-Methylpyrene]
Human CYP2C19; CYP2C19 IC50
  IC50: 31.8 µM
Human CYP1A2 [1]; CYP1A2 IC50
  IC50: 0.86 µM
Human CYP2D6; CYP2D6 IC50
  IC50: 55.4 µM
CYP3A4; CYP3A4 IC50
  IC50: 30.5 µM
Human CYP2C9 [2]; CYP2C9 IC50
  IC50: 55.4 µM
[3]
  IC50: 44.9 µM

## Cc1cc(C)c(N)cc1C [2,4,5-Trimethylaniline]
Human CYP2C19; CYP2C19 IC50
  IC50: 9.81 µM
Human CYP1A2 [1]; CYP1A2 IC50
  IC50: 0.87 µM
Human CYP1A2 [1]; IC50 CYP1A2 assay
  IC50: 0.79 µM
Human CYP2D6; CYP2D6 IC50
  IC50: 38.1 µM
CYP3A4; CYP3A4 IC50
  IC50: 35.5 µM
Human CYP2C9 [2]; CYP2C9 IC50
  IC50: 32.9 µM
[3]
  IC50: 15.8 µM

## O=S(=O)(Oc1ccc(Cl)cc1Cl)c1ccccc1 [2,4-Dichlorophenyl benzenesulfonate]
Human CYP2C19
  AC50: 0.77 µM
Human CYP2C19; [6]
  IC50: 0.49 µM
Human CYP2C19; IC50 CYP2C19 assay
  IC50: 0.42 µM
Human CYP1A2 [1]
  AC50: 2.24 µM
Human CYP1A2 [1]; [7]
  IC50: 1.58 µM
Human CYP2D6
  AC50: 51.1 µM
Human CYP2D6; [8]
  IC50: 64.4 µM
CYP3A4
  AC50: 3.27 µM
CYP3A4; [9]
  IC50: 2.12 µM
Human CYP2C9 [2]; CYP2C9 AC50 (half-maximal activity concentration)
  AC50: 35.7 µM
Human CYP2C9 [2]; [10]
  IC50: 39.2 µM
[3]
  IC50: 54.6 µM

## Cc1cccc2sc(N)nc12 [2-Amino-4-methylbenzothiazole]
Human CYP2C9 [5]
  CYP2C9 AC50 (half-maximal activity concentration): Inconclusive inhibitor
Human CYP2C19
  AC50: 27.8 µM
Human CYP1A2 [1]
  AC50: 21.2 µM
Human CYP2D6
  AC50: 41.1 µM
CYP3A4
  AC50: 11.8 µM

## Nc1ccc2c(c1)C(=O)c1ccccc1C2=O [2-Aminoanthraquinone]
Human CYP2C19; [6]
  IC50: 14 µM
Human CYP1A2 [1]; [7]
  IC50: 0.2 µM
Human CYP2D6; [8]
  IC50: 41.4 µM
CYP3A4; [9]
  IC50: 1.64 µM
Human CYP2C9 [2]; [10]
  IC50: 22.5 µM
[3]
  IC50: 2.67 µM

## Cc1cc(-c2ccc(N)c(C)c2)ccc1N [3,3'-Dimethylbenzidine]
Human CYP2C19; CYP2C19 IC50
  IC50: 6.24 µM
Human CYP1A2 [1]; CYP1A2 IC50
  IC50: 0.47 µM
Human CYP1A2 [1]; IC50 CYP1A2 assay
  IC50: 0.64 µM
Human CYP2D6
  IC50: 3.41 µM
CYP3A4; CYP3A4 IC50
  IC50: 10.6 µM
Human CYP2C9 [2]
  IC50: 23.4 µM
[3]
  IC50: 76.3 µM

## CN(C)c1ccc(Cc2ccc(N(C)C)cc2)cc1 [4,4'-Methylenebis(N,N-dimethylaniline)]
Human CYP2C19; [6]
  IC50: 0.22 µM
Human CYP1A2 [1]; [7]
  IC50: 4.55 µM
Human CYP2D6; [8]
  IC50: 40.1 µM
CYP3A4; [9]
  IC50: 19.9 µM
Human CYP2C9 [2]; [10]
  IC50: 25.5 µM
[3]
  Luciferase IC50 (half-maximal inhibitory concentration): Inactive

## Cc1cc(O)c(C(C)(C)C)cc1Sc1cc(C(C)(C)C)c(O)cc1C [4,4'-Thiobis(6-tert-butyl-m-cresol)]
Human CYP2C19; [6]
  IC50: 0.38 µM
Human CYP1A2 [1]; [7]
  IC50: 40 µM
Human CYP2D6; [8]
  IC50: 24.4 µM
CYP3A4; [9]
  IC50: 7.29 µM
Human CYP2C9 [2]; [10]
  IC50: 4.21 µM
[3]
  Luciferase IC50 (half-maximal inhibitory concentration): Inactive

## c1ccc(CCCc2ccncc2)cc1 [4-(3-Phenylpropyl)pyridine]
Human CYP2C19
  IC50: 0.7 µM
Human CYP1A2 [1]
  IC50: 1.14 µM
Human CYP2D6
  IC50: 3.93 µM
CYP3A4
  IC50: 0.43 µM
Human CYP2C9 [2]
  IC50: 1.86 µM
[3]
  IC50: 55.3 µM

## OCc1c2ccccc2cc2ccccc12 [9-Anthracenemethanol]
Human CYP2C19; [6]
  IC50: 26.1 µM
Human CYP1A2 [1]; [7]
  IC50: 0.7 µM
Human CYP2D6; [8]
  IC50: 60.1 µM
CYP3A4; [9]
  IC50: 29.8 µM
Human CYP2C9 [2]; [10]
  IC50: 27.6 µM
[3]
  IC50: 68.7 µM

## O=C1C(=O)c2cccc3cccc1c23 [Acenaphthenequinone]
Human CYP2C9 [5]
  CYP2C9 AC50 (half-maximal activity concentration): Inconclusive inhibitor
Human CYP2C19
  AC50: 35.7 µM
Human CYP1A2 [1]
  AC50: 7.99 µM
Human CYP2D6
  AC50: 23.4 µM
CYP3A4
  AC50: 23.7 µM

From publication PMC12155096 (International Journal of Molecular Sciences, 2025)
